Measurements from PubChem BioAssay (NCI).
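Test compounds were applied to cells in 96-well plates for 48 hours at 5 doses. TGI marks complete inhibition of growth.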

Key:
Assay in all cases: NCI anticancer screen, dose series, 48 h
[1] = tested on: A498 renal
[2] = tested on: HCT-116 colon
[3] = tested on: HT29 colon
[4] = tested on: MALME-3M melanoma
[5] = tested on: MCF7 breast
[6] = tested on: NCI-H460 lung
[7] = tested on: SK-MEL-28 melanoma
[8] = tested on: SK-OV-3 ovarian
[9] = tested on: UACC-257 melanoma
[10] = tested on: UO-31 renal

| Structure (SMILES) | TGI [1] [µM] | TGI [2] [µM] | TGI [3] [µM] | TGI [4] [µM] | TGI [5] [µM] | TGI [6] [µM] | TGI [7] [µM] | TGI [8] [µM] | TGI [9] [µM] | TGI [10] [µM] |
| --- | --- | --- | --- | --- | --- | --- | --- | --- | --- | --- |
| c1ccc(CCNCc2ccco2)nc1 | > 100 | > 100 | > 100 | > 100 | > 100 | > 100 | > 100 | > 100 | > 100 | > 100 |
| O=C1CCC2(CCO1)OCCO2 |  | > 100 | > 100 | > 100 | > 100 | > 100 | > 100 | > 100 | > 100 | > 100 |
| O=C1C=CC(=O)C(CNc2ccc(C(=O)OC34CC5CC(CC(C5)C3)C4)cc2)=C1 | 28 | 22.5 | 24.6 | 21.4 | 27.5 | 32.9 | 17.8 | > 57.4 | 18.2 | 16 |
| COc1cccc(CC(C)NCC(O)c2ccc(O)c(O)c2)c1 (configuration not stated) | > 100 | > 100 | > 100 | > 100 | > 100 | > 100 | > 100 | > 100 | > 100 | > 100 |
| CC(C)=CCC[C@@H](C)C1=C(Nc2ccccc2Cl)C(O)=C(C)C(=O)C1=O | 27.4 | > 43.7 | 13.6 | 18.7 | > 100 | > 100 | 33.5 | 33.5 | 27.7 | 17.9 |
| Cc1nc2c3c(ncn2n1)Oc1c(c(-c2ccccc2)nn1-c1ccccc1)C3c1ccc(Cl)cc1 (configuration not stated) | > 100 | > 100 | > 100 | > 100 | > 100 | > 100 | > 100 | > 100 | > 100 | > 100 |
| Cc1ccc(C(=O)O)c(CC2Cc3c(C)cccc3C2=O)c1 (configuration not stated) |  | > 100 | > 100 | > 100 | > 100 | > 100 | > 100 | > 100 | > 100 | > 100 |
| Cc1cccc2c1[nH]c1[nH]c(=O)[nH]c(=O)c12 | > 100 | > 100 | > 100 | > 100 | > 100 |  |  | > 100 | > 100 | > 100 |
| C(=C\c1cccc(/C=C/c2ccccn2)n1)/c1ccccn1 | 71.7 | > 100 | > 100 | 39.9 | > 100 | > 100 | > 100 | > 100 | > 100 | > 100 |
| N#Cc1nc(CCCCCN2C(=O)c3ccccc3C2=O)oc1N |  | > 100 | > 100 | > 100 | > 100 | > 100 | > 100 | > 100 | > 100 | > 100 |
| O=C(NCc1cccc(C(F)(F)F)c1)c1cc2sccc2nc1C(F)(F)F |  | > 100 | > 100 | > 100 | > 100 |  | > 100 | > 100 | > 100 | > 100 |
| Cc1ccc(C2=NOC(=O)[C@@H]3CCCC[C@@H]23)cc1 | > 100 | > 100 | > 100 | > 100 | > 100 |  | > 100 | > 100 | > 100 | > 100 |
| N=C1N(S(=O)(=O)c2ccccc2)[C@@H](Cc2ccccc2)[C@H](c2ccccc2)C1(c1ccccc1)c1ccccc1 | > 100 | > 100 | > 100 | > 100 | > 100 | > 100 | > 100 | > 100 | > 100 | > 100 |
| C=C(CCC(C)C1CCC2C3=C(C(=O)CC21C)C1(C)CCC(=O)[C@@H](C)C1CC3=O)C(C)C(=O)O (some centres not stated) | > 100 | > 100 | > 100 | > 100 | > 100 | > 100 | > 100 | 5.46 | > 100 | 32.4 |
| CN1CCN(c2c(Cl)cc(Cl)c3[nH]c4ccccc4c(=O)c23)CC1 | 5.44 | > 42.6 | 16.1 | 6.67 | 15.8 | 24.1 | 26.8 | 24.3 | 22.1 | 17.3 |
| CC[N+]1(C)CCC(O)(/C=C/c2ccc(OC)cc2)C(C(=O)/C=C/c2ccc(OC)cc2)C1 (configuration not stated) | 31.4 | > 48.3 | > 74.5 | 34.6 | > 42.6 | > 35.6 | 31.7 | 36.7 | 42.4 | 26.6 |
